Structures are written as SMILES. Like-named read-outs stand apart in the source and are kept apart here.

The source of these data is patent US5843916A, “Cyclic amp analogues, individually and in pairs, to inhibit neoplastic cell growth” (priority 1994, dated 1998).

In one assay the test system is cells. In words: Growth inhibition by 8-Cl-AMP. The class given is cell-based. The following applies: as high as 100 μM.
In a further assay the test system is myc-K562. The assay is described as follows: Growth inhibition of leukemic cells (Table 12). The following applies: Homo sapiens. The format is cell-based.
In assay [1] the test system is MDA-MB-231. The assay is described as follows: Cell cycle analysis by flow cytometry (Table 3). The following applies: 35 μM; 3 days. The format is cell-based, human. The procedure:
DNA histograms were generated on FACS II by using the DNA intercalating dye propidium iodide as described by Braylan et al. in Cytometry 2: 337-343, 1982. The percentage of cells in each cycle phase was calculated by using a PDP-11/34 computer and software as described by Neckers et al., Mol. Cell. Biol. 6: 4244-4250, 1986.
Breast (MCF-7, MDA-MB-231) and colon (LS-174T) cancer cells in log
phase (untreated control) and 3 days after treatment with 8-C1-cAMP
(10 μM), N^6 -benzyl-cAMP (35 μM), and 8-Cl-adenosine (5
were analyzed for DNA content by flow cytometric analysis as described
below. Similar results were obtained with other breast and colon cancer
In general terms: Flow cytometry measures light scatter and fluorescence of single cells or particles in a stream.

The next assay has as its system Molt-4. The assay is described as follows: Growth inhibition of leukemic cells (Table 12). The format is cell-based, human. The following applies: Homo sapiens, MOLT-4; read-out: Inhibition of Growth IC50, Molt-4.
In the next assay the test system is HL-60 Cells. The assay is described as follows: Cell cycle kinetics of HL-60 cells (Table 17). The following applies: 10 μM, 96 hours. The format is cell-based, human. Here is the method: Briefly, cells were fixed in 70% ethanol and stored at 4° C. before analysis. Nuclear DNA was stained with propidium iodide, 50 μg/ml in phosphate-buffered saline (pH 7.4), for 30 minutes at room temperature. RNase was added to avoid double-helix RNA staining. The DNA content of cells was analyzed by a FACScan flow cytometer coupled with a Hewlett-Packard computer. Cell cycle data analysis was performed by a Cell-FIT program according to the method of Dean (Cell Tissue Kinet. 13: 299-308 (1980)) (Becton Dickinson Immunocytometry Systems). Pulse area versus pulse width gating was performed to exclude doublets from the G2 -M region. For each sample, 20,000 events were stored in list mode. Cell surface antigen analysis was performed by flow cytometry with FACScan using a panel of monoclonal antibodies reactive with either monocytic or myeloid cells.

For assay [2], the system named is four leukemic cell lines (HL-60, K-562, myc-K562, Molt-4). The assay is described as follows: Growth inhibition of leukemic cell lines. The format is cell-based, human. The following applies: Homo sapiens; leukemic cell lines, range.
Assay [3] concerns MDA-MB-231. In words: Growth of MDA-MB-231 cells (Tables 3, 10). The class given is cell-based. The following applies: Homo sapiens, MDA-MB-231, 72 h, 3 days, control 100 (Table 3). Here is the method:
All breast cancer cell lines were grown in IMEM supplemented with 10% fetal bovine serum, HEPES 20 mM, penicillin-streptomycin, and extra glutamine. Colon carcinoma cell lines were grown in EMEM supplemented with 10% FBS, EMEM, NEAA, HEPES 20 mM, extra glutamine, and penicillin-streptomycin. The cells were grown at 37° C. in humidified incubators in an atmosphere of 5% CO2.
For cell growth experiments, 2-3×10^5 cells/60 mm dish were seeded, and 24 hours later (Day 0), the medium was removed, and fresh medium and the additives were added then and every 48 hours thereafter. The compounds of the present invention were added using 100X concentrated stock solutions. At desired times, cell counts in duplicate were performed on a Coulter counter after harvesting the cells with gentle trypsinization.

For assay [4], the system named is breast and colon cancer lines (MCF-7, T-47D, ZR-75-1, MCF-7ras, MDA-MB-231, BT-20, HBL-100, LS-174T, WiDr, HT-29). The assay is described as follows: Growth inhibition of breast and colon cancer lines (FIG. 1). The class given is cell-based, human. The following applies: densitometry text.
Assay [5] has as its system breast and colon cancer cells. In words: Effect on cell morphology (FIG. 2). The class given is cell-based, human. An excerpt:
The photographs were taken on Day 4, ×160.
Furthermore, the synergistic growth inhibitory effect of C-6 and C-8 analogue combinations was also reflected in the change in the cell morphology.

For assay [6], the system named is RI and RII cAMP receptor proteins, breast (MDA-MB-231) and colon (LS-174T) cancer cells. In words: cAMP receptor protein levels, breast and colon cancer cells (FIG. 6). The class given is cell-based, human. Here is the method: (§1) Photoactivated incorporation of 8-N3 [^32 P] was performed as described below.
(§2) M is marker proteins of known molecular weight.
The incubations were carried out at 23° C. for 60 minutes in 96-well immunoplates. […] The gels were fixed, dried, and exposed to X-ray films overnight.

In the next assay the test system is K-562. The assay is described as follows: Growth inhibition of leukemic cells (Table 12). The following applies: Homo sapiens, K562. The format is cell-based.
For assay [7], the system named is RI and RII cAMP receptor proteins, LS-174T. The assay is described as follows: Photoaffinity labelling of cAMP receptor proteins (Table 10, FIG. 6). The class given is cell-based, human. The following applies: 3 days, 8-Cl and N^6-benzyl 10 μM, dibutyryl 1 mM. The procedure:
as §1, §2
(§3) Each lane contained 50 micrograms protein for SDS-PAGE.
(§4) The incubations were carried out at 23° C. for 60 minutes in 96-well immunoplates. The reaction mixtures were then irradiated for 30 seconds at 254 nm, placing a Mineralite UVS-11 hand lamp directly onto the plate. The samples were mixed with 25 microliters of 3× sample buffer (3% SDS, 15% beta-mercaptoethanol, 30 mM Tris, 30% glycerol, 1% bromophenol blue saturated solution), boiled for 3 minutes, and centrifuged at 700 × g for five minutes. The samples containing 10-30 micrograms of protein were subjected to 0.05% SDS-12% PAGE. The gels were fixed, dried, and exposed to X-ray films overnight. The protein concentrations were determined by the method of Lowry et al., J. Biol. Chem. 193: 265-275, 1951, with bovine serum albumin as standard.
(§5) The levels of the receptor proteins are expressed relative to the RI level in the untreated control cells of MDA-MB-231 and LS-174T which are each set equal to 1.0 O.D.; the scale was expanded to differentiate the lower intensity bands.

The test system of assay [8] is RI and RII cAMP receptor proteins, MDA-MB-231. The description is as above. The class given is cell-based, human. The following applies: 3 days, 8-Cl and N^6-benzyl 10 μM, dibutyryl 1 mM. Here is the method: as §1, §2, §3, §4, §5
The subject of assay [9] is breast (MCF-7) and colon (LS-174T) cancer cell lines. The assay is described as follows: Growth inhibition of breast and colon cancer cells (Table 1). The class given is cell-based, human. The following applies: Homo sapiens. The method in brief: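 MCF-7 and LS-174T cells seeded day −1, treated on day 0 and day 2; duplicate Coulter counts on days 3 and 4 after gentle trypsinization. Percent growth inhibition versus untreated controls from dose-response curves, averaged over ≥3 experiments.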

The next assay concerns HL-60. The assay is described as follows: Growth inhibition of leukemic cells (Table 12). The format is cell-based. The following applies: Homo sapiens.

As to `Nc1ncnc2c1nc(Cl)n2[C@@H]1O[C@H](COP(=O)(O)O)[C@@H](O)[C@H]1O` [8-Cl-AMP], in the assay with cells, the “growth inhibition” value is recorded as “no appreciable growth inhibition”.

One may read the IC50 as the point on the concentration scale where inhibition reaches its midpoint. By inhibition is commonly meant the change of the read-out against control, counted positive when it falls. `O=P1(O)OC[C@H]2O[C@@H](n3cnc4c(NCc5ccccc5)ncnc43)[C@H](O)[C@@H]2O1` [N^6 -benzyl-cAMP]: the IC50 in the assay on myc-K562 was 30 µM; in the assay with Molt-4, 10 µM; in [2], 10 to 30 µM; with K-562, 27 µM; in the assay on HL-60, 20 µM. Moreover, in the assay with MDA-MB-231 [1], the “% Cell Population in G1” value is listed as 60%. For the same compound, in the assay on MDA-MB-231 [1], the “% Cell Population in G2M” value amounted to 15%. Further, the “% Cell Population in S” value in the assay on MDA-MB-231 [1] was found to be 25%. Moreover, in the assay with MDA-MB-231 [1], the “cell cycle phase distribution” value is “not appreciably different”. The “% G2 M” value in the assay with HL-60 Cells (control 8.3) was found to be 9.6%. Also, the “% G0-G1” value in the assay on HL-60 Cells (control 45.7) is 44.4%. Besides, the “% S” value in the assay with HL-60 Cells (control 46) turned out to be 46%. The same compound yielded an activity at 35 µM in the assay on MDA-MB-231 [3] of 45%. For the same compound, in assay [4], the “growth inhibition of cancer lines” value is on record as 45-70%. Moreover, the cell morphology result in assay [5] (0.5 μM alone, four days) was “did not induce a change in the cell morphology”; in assay [5] (50 μM, three to four days), “induced the morphological change”. In addition, the “decrease in the RI level” value in [6] (densitometric tracings) is 70-80%. Besides, the “increase in the ratio of RII to RI” value in assay [6] (densitometric tracings) was “two- to three-fold increase”. Also, the “RI and RII receptor levels” value in [6] (three days, FIG. 6) was “the cAMP receptor protein with a molecular weight of 52,000 increased appreciably with concomitant decrease of the 48,000 RI receptor protein”. Moreover, the RII/RI in [7] was 1.25; in assay [8], 0.28. The “relative level of RI” value in assay [7] (control RI = 1.0 O.D.) amounted to 0.20 ± 0.02; in [8] (control RI = 1.0 O.D.) it was 0.25 ± 0.03. Moreover, the “relative level of RII” value is reported as 0.25 ± 0.02 in assay [7] (control RI = 1.0 O.D.) and 0.07 ± 0.01 in assay [8] (control RI = 1.0 O.D.). In addition, the inhibition at 50 µM in assay [9] (72 h, 50 μM, day 3, average (range), read-out: % Growth Inhibition, Day 3) was 56%; in assay [9] (96 h, 50 μM, day 4, average (range), read-out: % Growth Inhibition, Day 4) it was 70%; in assay [9] (50 micromolar, read-out: growth inhibition) it was 30 to 70%.
